The NIST ThermoML archive (doi:10.1016/j.jct.2011.10.009)
± gives the expanded uncertainty stated by the source.

Details: 101.33 kPa, Liquid, Vibrating tube method

mass density (278.15 K)	mass density (288.15 K)	mass density (298.15 K)	mass density (308.15 K)	mass density (318.15 K)	SMILES
818.95 ± 0.14 kg/m3	810.32 ± 0.14 kg/m3	801.57 ± 0.14 kg/m3	792.68 ± 0.15 kg/m3	783.63 ± 0.15 kg/m3	[2H]C(C)O (stereo not given) [ethanol-1-d]
802.08 ± 0.11 kg/m3	793.6 ± 0.12 kg/m3	785.03 ± 0.12 kg/m3	776.35 ± 0.12 kg/m3	767.54 ± 0.13 kg/m3	CCO [ethanol]
